Test results: PubChem BioAssay AID328 (DTP/NCI, 2004)
Where “and” joins values, the source holds several entries; their conditions need not be identical. Identical values can stand only once. Inconclusive results and toxic doses are left out.

Tested on: BDF1 mice, P388 leukemia ip, median survival T/C
Test: NCI In Vivo Anticancer Drug Screen. Data for tumor model P388 Leukemia (intraperitoneal) in B6D2F1 (BDF1) mice
Conditions: endpoint: median survival time, higher = longer survival
Summary of the method: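 Each value expresses how treatment altered survival: treated-mouse outcome over vehicle-mouse outcome, both groups bearing the transplanted tumour.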

[1] = dose: 100.0 mg/kg/injection, schedule: Q04DX003 (ip), vehicle: saline with Tween-80
[2] = dose: 200.0 mg/kg/injection, schedule: Q04DX003 (ip), vehicle: saline with Tween-80
[3] = dose: 400.0 mg/kg/injection, schedule: Q04DX003 (ip), vehicle: saline with Tween-80
[4] = dose: 50.0 mg/kg/injection, schedule: Q01DX009 (ip), vehicle: saline with Tween-80
[5] = dose: 100.0 mg/kg/injection, schedule: Q01DX009 (ip), vehicle: saline with Tween-80
[6] = dose: 200.0 mg/kg/injection, schedule: Q01DX009 (ip), vehicle: saline with Tween-80
[7] = dose: 50.0 mg/kg/injection, schedule: Q04DX003 (ip), vehicle: saline sonified
[8] = dose: 100.0 mg/kg/injection, schedule: Q04DX003 (ip), vehicle: saline sonified
[9] = dose: 25.0 mg/kg/injection, schedule: Q04DX003 (ip), vehicle: saline with Tween-80
[10] = dose: 50.0 mg/kg/injection, schedule: Q04DX003 (ip), vehicle: saline with Tween-80

SMILES: CCCCCCCC(=O)NC1CC(O[C@H]2C[C@](O)(C(=O)CO)Cc3c(O)c4c(c(O)c32)C(=O)c2c(OC)cccc2C4=O)OC(C)C1O (some centres undefined)
- T/C (dose: 0.78 mg/kg/injection, schedule: Q01DX009 (ip), vehicle: water): 104 % of control
- T/C (dose: 6.25 mg/kg/injection, schedule: Q01DX009 (ip), vehicle: water): 150 % of control
- T/C (dose: 12.5 mg/kg/injection, schedule: Q01DX009 (ip), vehicle: water): 156 % of control
- T/C (dose: 18.8 mg/kg/injection, schedule: Q04DX003 (ip), vehicle: water): 106 % of control
- T/C (dose: 25.0 mg/kg/injection, schedule: Q01DX009 (ip), vehicle: water): 177 % of control
- T/C (dose: 37.5 mg/kg/injection, schedule: Q04DX003 (ip), vehicle: water): 109 % of control
- T/C (dose: 75.0 mg/kg/injection, schedule: Q04DX003 (ip), vehicle: water): 104 % of control and 123 % of control
- T/C (dose: 150.0 mg/kg/injection, schedule: Q04DX003 (ip), vehicle: water): 119 % of control

SMILES: NNC(=S)SCc1ccccc1
- T/C (dose: 15.0 mg/kg/injection, schedule: Q01DX009 (ip), vehicle: saline with Tween-80): 106 % of control
- T/C (dose: 30.0 mg/kg/injection, schedule: Q01DX009 (ip), vehicle: saline with Tween-80): 98 % of control

SMILES: NC(N)=NCCCCCC(=O)O
- T/C (dose: 100.0 mg/kg/injection, schedule: Q04DX003 (ip), vehicle: saline): 104 % of control
- T/C (dose: 200.0 mg/kg/injection, schedule: Q04DX003 (ip), vehicle: saline): 109 % of control
- T/C (dose: 400.0 mg/kg/injection, schedule: Q01DX001 (ip), vehicle: saline): 87 % of control

SMILES: CC(/C=N\N=C(N)N)=N/N=C(N)N
- T/C (dose: 5.0 mg/kg/injection, schedule: Q01DX010 (ip), vehicle: saline): 90 % of control
- T/C (dose: 10.0 mg/kg/injection, schedule: Q01DX010 (ip), vehicle: saline): 90 % of control and 100 % of control
- T/C (dose: 20.0 mg/kg/injection, schedule: Q01DX010 (ip), vehicle: saline): 100 % of control
- T/C (dose: 44.0 mg/kg/injection, schedule: Q01DX009 (ip), vehicle: saline): 150 % of control
- T/C (dose: 400.0 mg/kg/injection, schedule: Q04DX003 (ip), vehicle: saline): 95 % of control

SMILES: CN(C)c1ccc(-c2nc3c(=O)n(C)c(=O)n(C)c3nc2-c2ccc(N(C)C)cc2)cc1
- T/C (dose: 100.0 mg/kg/injection, schedule: Q04DX002 (ip), vehicle: saline with Tween-80): 106 % of control
- T/C (dose: 200.0 mg/kg/injection, schedule: Q04DX002 (ip), vehicle: saline with Tween-80): 111 % of control
- T/C (dose: 400.0 mg/kg/injection, schedule: Q04DX002 (ip), vehicle: saline with Tween-80): 116 % of control

SMILES: CCOS(=O)(=O)c1ccc([N+](=O)[O-])cc1[N+](=O)[O-]
- T/C (dose: 50.0 mg/kg/injection, schedule: Q01DX001 (ip), vehicle: saline): 95 % of control
- T/C (dose: 100.0 mg/kg/injection, schedule: Q01DX001 (ip), vehicle: saline): 104 % of control
- T/C (dose: 200.0 mg/kg/injection, schedule: Q01DX001 (ip), vehicle: saline): 118 % of control

SMILES: COc1ccccc1NC(=O)Nc1cccc(Cl)c1
- T/C [1]: 95 % of control
- T/C [2]: 104 % of control
- T/C [3]: 95 % of control

SMILES: Cc1ccc2c(c1)CCCN2C=O
- T/C [4]: 104 % of control
- T/C [5]: 109 % of control
- T/C [6]: 123 % of control

SMILES: CCCCC(C(C)=O)C(C)C (centres undefined)
- T/C (dose: 75.0 mg/kg/injection, schedule: Q01DX009 (ip), vehicle: Klucel (hydroxypropylcellulose) (HPC)): 90 % of control
- T/C (dose: 100.0 mg/kg/injection, schedule: Q04DX003 (ip), vehicle: Klucel (hydroxypropylcellulose) (HPC)): 111 % of control
- T/C (dose: 150.0 mg/kg/injection, schedule: Q01DX009 (ip), vehicle: Klucel (hydroxypropylcellulose) (HPC)): 90 % of control
- T/C (dose: 200.0 mg/kg/injection, schedule: Q04DX003 (ip), vehicle: Klucel (hydroxypropylcellulose) (HPC)): 96 % of control
- T/C (dose: 300.0 mg/kg/injection, schedule: Q01DX009 (ip), vehicle: Klucel (hydroxypropylcellulose) (HPC)): 95 % of control
- T/C (dose: 400.0 mg/kg/injection, schedule: Q04DX003 (ip), vehicle: Klucel (hydroxypropylcellulose) (HPC)): 96 % of control

SMILES: CC1(C)CC(=O)C=C(NC2CCCCC2)C1
- T/C [7]: 90 % of control
- T/C [8]: 109 % of control
- T/C (dose: 200.0 mg/kg/injection, schedule: Q04DX003 (ip), vehicle: saline sonified): 100 % of control

SMILES: NC(=O)C12CCCCC1CCC(=O)C2 (centres undefined)
- T/C (dose: 25.0 mg/kg/injection, schedule: Q04DX003 (ip), vehicle: saline sonified): 105 % of control
- T/C [7]: 100 % of control
- T/C [8]: 95 % of control

SMILES: COc1ccc(NC(=S)NN)cc1
- T/C [9]: 100 % of control
- T/C [10]: 100 % of control
- T/C (dose: 66.0 mg/kg/injection, schedule: Q04DX003 (ip), vehicle: saline with Tween-80): 100 % of control
- T/C [1]: 100 % of control
- T/C (dose: 150.0 mg/kg/injection, schedule: Q04DX003 (ip), vehicle: saline with Tween-80): 90 % of control

SMILES: c1ccc(CN2CCN(Cc3ccccc3)C2c2ccccc2)cc1
- T/C (dose: 25.0 mg/kg/injection, schedule: Q01DX009 (ip), vehicle: saline with Tween-80): 103 % of control
- T/C [4]: 97 % of control
- T/C [10]: 107 % of control
- T/C [5]: 97 % of control
- T/C [1]: 107 % of control
- T/C [6]: 104 % of control
- T/C [2]: 103 % of control
- T/C (dose: 400.0 mg/kg/injection, schedule: Q01DX009 (ip), vehicle: saline with Tween-80): 106 % of control
- T/C [3]: 96 % of control

SMILES: CCOC(=O)Nc1cc2c(c(N)n1)N=C(CN(C)c1ccc(OC)cc1)CN2
- T/C (dose: 12.5 mg/kg/injection, schedule: Q01DX001 (ip), vehicle: Klucel (hydroxypropylcellulose) (HPC)): 175 % of control
- T/C (dose: 25.0 mg/kg/injection, schedule: Q01DX001 (ip), vehicle: Klucel (hydroxypropylcellulose) (HPC)): 240 % of control
- T/C (dose: 50.0 mg/kg/injection, schedule: Q01DX001 (ip), vehicle: Klucel (hydroxypropylcellulose) (HPC)): 277 % of control

SMILES: CCOc1cc(C=Nc2cc(Cl)c(O)c(Cl)c2)ccc1N(CCCl)CCCl
- T/C (dose: 16.0 mg/kg/injection, schedule: Q04DX003 (ip), vehicle: saline with Tween-80): 154 % of control
- T/C (dose: 16.5 mg/kg/injection, schedule: Q04DX003 (ip), vehicle: saline with Tween-80): 157 % of control
- T/C [9]: 173 % of control
- T/C (dose: 37.5 mg/kg/injection, schedule: Q04DX003 (ip), vehicle: saline with Tween-80): 207 % of control

SMILES: Oc1cc(O)c(CN(CCCl)CCCl)cc1CN(CCCl)CCCl
- T/C (dose: 1.0 mg/kg/injection, schedule: Q01DX009 (ip), vehicle: saline): 118 % of control
- T/C (dose: 1.5 mg/kg/injection, schedule: Q01DX009 (ip), vehicle: saline): 118 % of control
- T/C (dose: 2.4 mg/kg/injection, schedule: Q01DX009 (ip), vehicle: saline): 157 % of control
- T/C (dose: 3.6 mg/kg/injection, schedule: Q01DX009 (ip), vehicle: saline): 182 % of control
- T/C (dose: 5.4 mg/kg/injection, schedule: Q01DX009 (ip), vehicle: saline): 166 % of control
- T/C (dose: 5.5 mg/kg/injection, schedule: Q01DX009 (ip), vehicle: saline): 168 % of control
- T/C (dose: 8.2 mg/kg/injection, schedule: Q01DX009 (ip), vehicle: saline): 176 % of control
- T/C (dose: 8.25 mg/kg/injection, schedule: Q01DX009 (ip), vehicle: saline): 165 % of control and 180 % of control
- T/C (dose: 9.9 mg/kg/injection, schedule: Q04DX003 (ip), vehicle: saline): 163 % of control
- T/C (dose: 15.0 mg/kg/injection, schedule: Q04DX003 (ip), vehicle: saline): 220 % of control
- T/C (dose: 16.0 mg/kg/injection, schedule: Q01DX009 (ip), vehicle: saline): 194 % of control
- T/C (dose: 18.75 mg/kg/injection, schedule: Q01DX009 (ip), vehicle: saline): 195 % of control and 200 % of control
- T/C (dose: 23.0 mg/kg/injection, schedule: Q04DX003 (ip), vehicle: saline): 160 % of control
- T/C (dose: 25.0 mg/kg/injection, schedule: Q01DX009 (ip), vehicle: saline): 162 % of control and 202 % of control and 222 % of control
- T/C (dose: 35.0 mg/kg/injection, schedule: Q01DX009 (ip), vehicle: saline): 185 % of control
- T/C (dose: 35.0 mg/kg/injection, schedule: Q04DX003 (ip), vehicle: saline): 190 % of control and 200 % of control
- T/C (dose: 50.0 mg/kg/injection, schedule: Q01DX009 (ip), vehicle: saline): 150 % of control
- T/C (dose: 55.0 mg/kg/injection, schedule: Q04DX003 (ip), vehicle: saline): 250 % of control and 212 % of control
- T/C (dose: 80.0 mg/kg/injection, schedule: Q04DX003 (ip), vehicle: saline): 250 % of control and 208 % of control
- T/C (dose: 100.0 mg/kg/injection, schedule: Q01DX009 (ip), vehicle: saline): 86 % of control
- T/C (dose: 200.0 mg/kg/injection, schedule: Q01DX009 (ip), vehicle: saline): 177 % of control
